Data from ChEMBL document CHEMBL1817658, “Synthesis and biological activity of optically active phenylbutenoid dimers” (J Nat Prod, 2011).

The compounds below were run against ATP-dependent translocase ABCB1 (Homo sapiens, UniProt P08183) (assay: Inhibition of P-gp in human MCF7/ADR cells assessed as potentiation of daunomycin-induced cytotoxicity at 50 microM incubated for 2 hrs by SRB assay). Conditions: nci/adr-res; call rule not given here.
Sequence of ATP-dependent translocase ABCB1 (P08183 whole entry): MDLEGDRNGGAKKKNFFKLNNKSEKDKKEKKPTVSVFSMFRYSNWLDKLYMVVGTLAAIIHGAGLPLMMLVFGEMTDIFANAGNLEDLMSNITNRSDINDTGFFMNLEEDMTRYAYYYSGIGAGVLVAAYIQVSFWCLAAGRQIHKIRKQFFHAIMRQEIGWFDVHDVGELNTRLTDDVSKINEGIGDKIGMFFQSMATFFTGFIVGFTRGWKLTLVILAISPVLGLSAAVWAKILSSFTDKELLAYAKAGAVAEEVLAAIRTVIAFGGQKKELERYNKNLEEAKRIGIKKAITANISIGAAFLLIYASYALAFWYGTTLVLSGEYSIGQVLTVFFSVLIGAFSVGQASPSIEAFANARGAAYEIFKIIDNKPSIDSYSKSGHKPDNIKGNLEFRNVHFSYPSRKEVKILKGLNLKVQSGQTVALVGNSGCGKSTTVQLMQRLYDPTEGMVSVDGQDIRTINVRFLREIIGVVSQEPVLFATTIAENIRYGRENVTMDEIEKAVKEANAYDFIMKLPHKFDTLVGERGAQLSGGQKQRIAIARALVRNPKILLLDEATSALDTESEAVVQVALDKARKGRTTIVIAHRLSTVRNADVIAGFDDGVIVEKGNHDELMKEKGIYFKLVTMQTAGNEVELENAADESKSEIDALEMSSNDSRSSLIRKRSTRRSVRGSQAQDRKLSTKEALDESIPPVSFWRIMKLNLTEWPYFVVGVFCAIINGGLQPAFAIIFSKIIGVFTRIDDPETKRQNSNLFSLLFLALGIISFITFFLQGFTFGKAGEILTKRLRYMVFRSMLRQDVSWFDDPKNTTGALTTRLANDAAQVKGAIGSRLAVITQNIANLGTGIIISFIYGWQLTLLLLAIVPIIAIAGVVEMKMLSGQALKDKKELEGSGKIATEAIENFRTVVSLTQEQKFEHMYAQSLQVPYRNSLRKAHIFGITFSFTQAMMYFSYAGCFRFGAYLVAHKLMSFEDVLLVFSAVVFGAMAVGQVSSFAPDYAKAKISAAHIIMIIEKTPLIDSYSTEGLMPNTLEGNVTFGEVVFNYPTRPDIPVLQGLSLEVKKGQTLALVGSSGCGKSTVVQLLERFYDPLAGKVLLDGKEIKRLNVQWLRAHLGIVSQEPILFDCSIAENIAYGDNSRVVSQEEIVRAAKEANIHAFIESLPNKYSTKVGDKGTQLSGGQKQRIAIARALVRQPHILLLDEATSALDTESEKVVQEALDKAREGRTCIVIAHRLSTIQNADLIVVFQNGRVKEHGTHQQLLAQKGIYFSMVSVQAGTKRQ
Type: cell-based
For COc1ccc(/C=C/[C@@H]2CCC=C[C@H]2c2ccc(OC)c(OC)c2)cc1OC, the “inhibition (INH)” value was “Active”. In the case of COc1ccc(/C=C\[C@H]2CCC=C[C@@H]2c2ccc(OC)c(OC)c2)cc1OC, the “inhibition (INH)” value is reported as “Active”. With COc1ccc(/C=C/[C@H]2CCC=C[C@@H]2c2ccc(OC)c(OC)c2)cc1OC the “inhibition (INH)” value was “Active”.
